Measured values as given in US8426448B2, “1,5-diphenyl-pyrrolidin-2-one compounds as CB-1 ligands” (Eli Lilly and Company, priority 2008, dated 2013).
Counter-ions that a name gives are not always drawn.

Tests used:
[1] = molecular target: T1, hCB-2 (Homo sapiens, UniProt P34972); experiment: hCB2-Sf9 antagonist mode SPA GTP-γ-35S binding assay; format: biochemical; details: antagonist mode vs methanandamide; read-out: hCB-2 SPA GTPγS Sf9 Membrane Antagonist Kb
T1 construct: purchased Perkin Elmer, Boston, Mass; host or cells: Sf9 cell membranes
Method: (§1) Compounds of the present invention may be tested for functional activity at the CB-1 and CB-2 receptors in both agonist and antagonist modes using SPA (Scintillation Proximity Assay) based GTP-γ-^35S binding assays. All assay components are prepared in assay buffer (20 mM HEPES, 100 mM NaCl, 5 mM MgCl2, pH 7.4) at room temperature. Semi-log dilutions of test compound are prepared in assay buffer containing BSA (0.125% final conc.) for the agonist mode assays. For the antagonist mode assays, test compounds are prepared in the same manner but also include an 80% efficacious dose of a full agonist (methanandamide). GTP-γ^35S binding for the antagonist assay may be measured in a 96 well format using a modification of an antibody capture technique previously described. (DeLapp, N W, et al. (1999) J Pharmacol Exp Ther 289:946-955.) The CB-2 receptor agonist activity may be measured using a similar method using hCB2-Sf9 membranes. The CB-1 receptor agonist activity may be measured using a whole membrane capture technique using hCB1-CHO membranes. All incubations are done at room temperature. […]
(§2) Data are analyzed as follows: Background is subtracted from all wells. […] Percent antagonist inhibition is calculated by first normalizing the data to the signal generated by a saturating concentration of the full agonist (methanandamide). Then the data are analyzed using a 4-parameter logistic reduced fit (Activity Base™ and XLFit3™ from IDBS, Emeryville, Calif.). Kb values are determined using a modification of the Cheng-Prusoff relationship: Kb=IC50/(1+[agonist]/EC50), where “IC50” is determined from a four parameter fit of displacement curves, “[agonist]” is the agonist challenge concentration (nM), and “EC50” is determined from a four parameter fit of a full agonist concentration response curve (Cheng and Prusoff 1973). Mean Kb values are calculated as a mean of at least three independent determinations±standard error of the mean (SEM). […]

[2] = molecular target: T2, hCB-1 (Homo sapiens, UniProt P21554); experiment: hCB1-CHO antagonist mode SPA GTP-γ-35S binding assay; format: biochemical; design: purchased Applied Cell Sciences, Rockville, Md; host or cells: CHO cell membranes; details: antagonist mode vs methanandamide; read-out: hCB-1 SPA GTPγS CHO Membrane Antagonist Kb
Method: (§3) Compounds of the present invention may be tested for functional activity at the CB-1 and CB-2 receptors in both agonist and antagonist modes using SPA (Scintillation Proximity Assay) based GTP-γ-^35S binding assays. All assay components are prepared in assay buffer (20 mM HEPES, 100 mM NaCl, 5 mM MgCl2, pH 7.4) at room temperature. Semi-log dilutions of test compound are prepared in assay buffer containing BSA (0.125% final conc.) for the agonist mode assays. For the antagonist mode assays, test compounds are prepared in the same manner but also include an 80% efficacious dose of a full agonist (methanandamide). GTP-γ^35S binding for the antagonist assay may be measured in a 96 well format using a modification of an antibody capture technique previously described. (DeLapp, N W, et al. (1999) J Pharmacol Exp Ther 289:946-955.) The CB-2 receptor agonist activity may be measured using a similar method using hCB2-Sf9 membranes. The CB-1 receptor agonist activity may be measured using a whole membrane capture technique using hCB1-CHO membranes. All incubations are done at room temperature.
(§4) hCB1-CHO or rCB1-CHO membranes (Applied Cell Sciences, Rockville, Md.) and GDP (1 μM final) are added to ice cold assay buffer and homogenized. […] Plates are then centrifuged at 700×g for 10 min. and the radioactivity counted.
(§5) Data are analyzed as follows: Background is subtracted from all wells. […] Percent antagonist inhibition is calculated by first normalizing the data to the signal generated by a saturating concentration of the full agonist (methanandamide). Then the data are analyzed using a 4-parameter logistic reduced fit (Activity Base™ and XLFit3™ from IDBS, Emeryville, Calif.). Kb values are determined using a modification of the Cheng-Prusoff relationship: Kb=IC50/(1+[agonist]/EC50), where “IC50” is determined from a four parameter fit of displacement curves, “[agonist]” is the agonist challenge concentration (nM), and “EC50” is determined from a four parameter fit of a full agonist concentration response curve (Cheng and Prusoff 1973). […]

[3] = molecular target: T1, hCB-2; experiment: hCB2-Sf9 agonist mode SPA GTP-γ-35S binding assay; format: biochemical; details: read-out: hCB-2 SPA GTPγS Sf9 Membrane Agonist Relative EC50
Method: as §1
Data are analyzed as follows: Background is subtracted from all wells. […] Percent antagonist inhibition is calculated by first normalizing the data to the signal generated by a saturating concentration of the full agonist (methanandamide). […]

[4] = molecular target: T3, rCB-1 (Rattus norvegicus, UniProt P20272); experiment: rCB1-CHO antagonist mode SPA GTP-γ-35S binding assay; format: biochemical; details: antagonist mode vs methanandamide; read-out: rCB-1 SPA GTPγS CHO Membrane Antagonist Kb
T3 construct: purchased Applied Cell Sciences, Rockville, Md; host or cells: CHO cell membranes
Method: as §3, §4, §5

[5] = system: Male NIH Swiss mice; experiment: Forced swim test (FST); format: in vivo; design: key to Dunett's Test (0.05) * against vehicle, # against Imipramine: * against vehicle; # against Imipramine; details: for minimum effective dose (MED) in forced swim test: Dunett's Test (0.05) statistically significant; for Dunett's Test (0.05) * against vehicle, # against Imipramine: immobility time; for Seconds of immobility: last 4 min of 6 min swim, n = 8
Excerpt: The forced swim test is a well established animal model for depression, anxiety and avolition (lack of motivation)(Porsolt, et al. Nature (1977) 266, 730) (J. M. Witkin et al., Trends Pharmacol Sci. 2005 26:609-17). It can also be used as a model for the treatment of negative symptoms of schizophrenia.
Male NIH Swiss mice (Harlan Sprague-Dawley) are housed 12 mice/cage for 7-10 days prior to testing. On the day of testing, mice weighing 25-30 g, are brought to the testing room at least 1 hr. prior to dosing. Mice are dosed (p.o.) at 6-8 min. intervals with either vehicle (1% CMC/0.5% SLS/0.08% povidone/0.05 antifoam for CB1 inverse agonists) or test compound and put it into a clean cage (4 mice/cage).
To test, mice are placed individually in clear plastic cylinders (about 10 cm diameter×25 cm height) filled to 6 cm with water at 22-25° C. for six min. The duration of immobility during the last 4 min. is recorded. A mouse is regarded as immobile when floating motionless or making only those movements necessary to keep its head above the water.
The immobility time (in seconds) is analyzed by ANOVA using Dunnett's test. The minimum effective dose (MED) is considered to be the lowest dose of test compound at which a statistically significant decrease in the immobility time is observed versus the vehicle control.

[6] = molecular target: T2, hCB-1; experiment: hCB1-Sf9 antagonist mode SPA GTP-γ-35S binding assay; format: biochemical; design: purchased Applied Cell Sciences, Rockville, Md; details: Sf9 membrane 22.7 μg; antagonist mode vs methanandamide; read-out: hCB-1 SPA GTPγS Sf9 Membrane 22.7 μg Antagonist Kb
Method: as §1, §2

[7] = molecular target: T2, hCB-1; experiment: hCB1-CHO agonist mode SPA GTP-γ-35S binding assay; format: biochemical; design: purchased Applied Cell Sciences, Rockville, Md; host or cells: CHO cell membranes; details: inverse agonism, read-out: hCB-1 SPA GTPγS CHO Membrane Agonist Relative EC50 inverse
Method: as §3
hCB1-CHO membrane, GDP (1 μM final conc.), and saponin (10 μg/mL final conc., Sigma, St Louis, Mo.) are combined and prepared on ice as for the antagonist assays, above. Diluted test compounds, GTP-γ-^35S ([…] final conc.) and membranes are combined in the assay plate and incubated for 30 min. Then 1 mg/well Wheatgerm Agglutinin SPA beads (GE Healthcare, Piscataway, N.J.) are added, plates are sealed and vortexed and incubate for 1 hr. before spinning and counting in the same fashion as for the antagonist assays, above.
Data are analyzed as follows: Background is subtracted from all wells. Percent agonist efficacy is determine by normalizing agonist/inverse agonist dose response data to the response obtained for a full agonist (methanandamide). Percent antagonist inhibition is calculated by first normalizing the data to the signal generated by a saturating concentration of the full agonist (methanandamide). Then the data are analyzed using a 4-parameter logistic reduced fit (Activity Base™ and XLFit3™ from IDBS, Emeryville, Calif.). Kb values are determined using a modification of the Cheng-Prusoff relationship: Kb=IC50/(1+[agonist]/EC50), where “IC50” is determined from a four parameter fit of displacement curves, “[agonist]” is the agonist challenge concentration (nM), and “EC50” is determined from a four parameter fit of a full agonist concentration response curve (Cheng and Prusoff 1973). Mean Kb values are calculated as a mean of at least three independent determinations±standard error of the mean (SEM). […]

[8] = Rat oral bioavailability; format: in vivo; details: Sprague-Dawley, plasma, fasted male SD rats, IV 0.25 mg/kg (20% MEOP/80% water), PO 1 mg/kg (1% NaCMC/0.5% SLS/0.05% antifoam), based on AUC0-∞
Method: (§6) Cohorts of three or four 250-450 gram male Sprague-Dawley rats or approximately 10 kg Beagle dogs (female or male) are used. […] Dogs are administered i.v. by cannulated cephalic vein and blood collections are by jugular vein. Animals are first dosed at 0.25 mg/kg i.v. and blood samples (0.2 mL) are then collected using EDTA as an anticoagulant at 0.0830, 0.25, 0.50, 1, 2, 4, 8, 12, 24, 48, 72, 96, and 120 hours. Next after at least two days and after 18-24 hours fasting, the animals are dosed at 1.0 mg/kg by oral gavage. During the course of a study the total of blood (ml) collected is not to exceed 1% of total body weight in grams. Should larger blood volumes be required, the sampled blood volume is replace with heparinized whole blood from a donor animal. When using a cross-over study design, rats receive a volume of heparinized whole blood following the final sample of each study day approximately equal to that removed during study.
(§7) Compound plasma concentrations are measured by LC/MS/MS assays. Data are then analyzed using standard non-compartmental pharmacokinetic analysis. Oral bioavailability is calculated as: (AUC0-infinity,oral/AUC0-infinity,i.v.)×(Dose,i.v./Dose,oral)×100%

[9] = Dog oral bioavailability; format: in vivo; details: plasma; fasted male beagle dog; IV 0.25 mg/kg, PO 1 mg/kg; Mean±SD, n=3; based on AUC0-24hr
Method: as §6, §7

T2 sequence (P21554 whole entry): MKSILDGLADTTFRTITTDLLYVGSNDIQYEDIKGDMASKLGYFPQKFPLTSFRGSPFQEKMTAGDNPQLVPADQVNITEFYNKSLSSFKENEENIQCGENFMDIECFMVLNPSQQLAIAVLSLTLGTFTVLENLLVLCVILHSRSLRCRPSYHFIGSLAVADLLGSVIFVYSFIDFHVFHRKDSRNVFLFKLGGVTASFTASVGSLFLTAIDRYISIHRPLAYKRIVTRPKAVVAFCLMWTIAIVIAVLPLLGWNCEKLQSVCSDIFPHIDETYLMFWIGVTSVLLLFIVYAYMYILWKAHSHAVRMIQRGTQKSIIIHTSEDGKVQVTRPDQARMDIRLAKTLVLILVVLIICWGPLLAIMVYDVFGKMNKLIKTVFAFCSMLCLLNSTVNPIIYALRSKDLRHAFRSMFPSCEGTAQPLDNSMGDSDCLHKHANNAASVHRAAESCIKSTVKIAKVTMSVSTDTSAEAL
T1 sequence (P34972 whole entry): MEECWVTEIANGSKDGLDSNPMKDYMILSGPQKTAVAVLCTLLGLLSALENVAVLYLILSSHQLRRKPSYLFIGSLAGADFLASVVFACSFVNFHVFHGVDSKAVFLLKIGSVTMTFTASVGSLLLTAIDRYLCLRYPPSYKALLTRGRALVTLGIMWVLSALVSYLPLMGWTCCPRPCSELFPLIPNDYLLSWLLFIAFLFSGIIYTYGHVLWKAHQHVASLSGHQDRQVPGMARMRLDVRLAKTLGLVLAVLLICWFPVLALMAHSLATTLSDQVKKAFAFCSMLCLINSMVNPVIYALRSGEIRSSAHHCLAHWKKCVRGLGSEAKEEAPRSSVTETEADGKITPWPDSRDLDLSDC
T3 sequence (P20272 whole entry): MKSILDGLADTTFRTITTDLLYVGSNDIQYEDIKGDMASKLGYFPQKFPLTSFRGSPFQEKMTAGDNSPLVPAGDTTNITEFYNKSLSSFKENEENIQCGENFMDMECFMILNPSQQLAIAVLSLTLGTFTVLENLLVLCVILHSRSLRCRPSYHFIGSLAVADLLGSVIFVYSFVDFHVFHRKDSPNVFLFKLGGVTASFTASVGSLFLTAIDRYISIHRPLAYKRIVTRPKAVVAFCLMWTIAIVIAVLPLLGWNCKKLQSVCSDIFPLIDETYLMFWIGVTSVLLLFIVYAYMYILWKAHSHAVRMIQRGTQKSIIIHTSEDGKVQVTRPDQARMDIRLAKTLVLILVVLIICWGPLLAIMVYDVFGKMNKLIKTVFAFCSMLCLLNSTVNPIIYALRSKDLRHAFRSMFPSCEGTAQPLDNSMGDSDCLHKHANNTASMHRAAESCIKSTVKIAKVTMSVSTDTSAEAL

SMILES: CC(C)(N[C@@H]1C[C@H](c2cccc(C(F)(F)F)c2)N(c2ccc(OC(F)(F)F)cc2)C1=O)c1cccc(C(F)(F)F)n1 [Example 28, (3R,5R)-3-[1-Methyl-1-(6-trifluoromethyl-pyridin-2-yl)-ethylamino]-5-(3-trifluoromethyl-phenyl)-1-(4-trifluoromethoxy-phenyl)-pyrrolidin-2-one]
- Kb [1]: > 11900 nM
- Kb [2]: 2.37 nM
- EC50 [3]: > 100000 nM
- Kb [4]: 0.756 nM
- minimum effective dose (MED) in forced swim test ([5]; mice, p.o.): 10 mg/kg
- Kb [6]: 1.76 nM
- EC50 [7]: 3.02 nM

SMILES: CN(C)CCCN1c2ccccc2CCc2ccccc21 [Imipramine, reference compound]
- Dunett's Test (0.05) * against vehicle, # against Imipramine ([5]; 15 mg/Kg): *
- Seconds of immobility ([5]; 15 mg/Kg, mice): 80 s

SMILES: CC(C)(N[C@@H]1C[C@H](c2cccc(OC(F)(F)F)c2)N(c2ccc(C#N)cc2)C1=O)c1cccc(C(F)(F)F)n1 [Example 27, 4-[(3R,5R)-3-[1-Methyl-1-(6-trifluoromethyl-pyridin-2-yl)-ethylamino]-2-oxo-5-(3-trifluoromethoxy-phenyl)-pyrrolidin-1-yl]-benzonitrile]
- Seconds of immobility ([5]; 1 mg/Kg p.o., mice): 170 s
- Dunett's Test (0.05) * against vehicle, # against Imipramine ([5]; 1 mg/Kg): #
- Seconds of immobility ([5]; 3 mg/Kg p.o., mice): 128 s
- Dunett's Test (0.05) * against vehicle, # against Imipramine ([5]; 3 mg/Kg): *
- Seconds of immobility ([5]; 10 mg/Kg p.o., mice): 80 s
- Dunett's Test (0.05) * against vehicle, # against Imipramine ([5]; 10 mg/Kg): *
- duration of immobility in forced swim test ([5]; mice, p.o., result in words): significantly reduce the duration of mobility in a dose dependent manner

SMILES: CC(C)(N[C@@H]1C[C@H](c2cccc(OC(F)(F)F)c2)N(c2ccc(C#N)cc2)C1=O)c1cccc(C(F)(F)F)n1 [Example 27HCl Salt, 4-[(3R,5R)-3-[1-methyl-1-(6-trifluoromethyl-pyridin-2-yl)-ethylamino]-2-oxo-5-(3-trifluoromethoxy-phenyl)-pyrrolidin-1-yl]-benzonitrile hydrochloride]
- bioavailability [8]: 58 ± 8.6%
- bioavailability [9]: 33 ± 13%

SMILES: CC(C)(N[C@@H]1C[C@H](c2cccc(OC(F)(F)F)c2)N(c2ccc(C(F)(F)F)cc2)C1=O)c1cccc(C(F)(F)F)n1 [Example 11, (3R,5R)-3-[1-Methyl-1-(6-trifluoromethyl-pyridin-2-yl)-ethylamino]-5-(3-trifluoromethoxy-phenyl)-1-(4-trifluoromethyl-phenyl)-pyrrolidin-2-one]
- minimum effective dose (MED) in forced swim test ([5]; mice, p.o.): 3 mg/kg
